Laboratory results as given in US20260055079A1, “PHTHALAZINONE COMPOUNDS AS PARP7 INHIBITORS” (AZKARRA THERAPEUTICS, INC., priority 2022, published 2026).
Like-named read-outs stand apart in the source and are kept apart here.

Legend:
[1] = tested on: HARA (human lung squamous cell carcinoma) cells; assay: Cell proliferation assay (CellTiter-Glo), HARA; type: cell-based; details: 6 days, CellTiter-Glo, read-out: HARA GI50
[2] = tested on: CT26 (mouse colon adenocarcinoma) cells; assay: Cell proliferation assay (CellTiter-Glo), CT26; type: cell-based; details: 6 days
[3] = target: His-GST-PARP7 (Homo sapiens (Human), UniProt Q7Z3E1); assay: PARP7 biochemical assay; details: read-out: PARP7 IC50
Chain of His-GST-PARP7 (Q7Z3E1 whole entry): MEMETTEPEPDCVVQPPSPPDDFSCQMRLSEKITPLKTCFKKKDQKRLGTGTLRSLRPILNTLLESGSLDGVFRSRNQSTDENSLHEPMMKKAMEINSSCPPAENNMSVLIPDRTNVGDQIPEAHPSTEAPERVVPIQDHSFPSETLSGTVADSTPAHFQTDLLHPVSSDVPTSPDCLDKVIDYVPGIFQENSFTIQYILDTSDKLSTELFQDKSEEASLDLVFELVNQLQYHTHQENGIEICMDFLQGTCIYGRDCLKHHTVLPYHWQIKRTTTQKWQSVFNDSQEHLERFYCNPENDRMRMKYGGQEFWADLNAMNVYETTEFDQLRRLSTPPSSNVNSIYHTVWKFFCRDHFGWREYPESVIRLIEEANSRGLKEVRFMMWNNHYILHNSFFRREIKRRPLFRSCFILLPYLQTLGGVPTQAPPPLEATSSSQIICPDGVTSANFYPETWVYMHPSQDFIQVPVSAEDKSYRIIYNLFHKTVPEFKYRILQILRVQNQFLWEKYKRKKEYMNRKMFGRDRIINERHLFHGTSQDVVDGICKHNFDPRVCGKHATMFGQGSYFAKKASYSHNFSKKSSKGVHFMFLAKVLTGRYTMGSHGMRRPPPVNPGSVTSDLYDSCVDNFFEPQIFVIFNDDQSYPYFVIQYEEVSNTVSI

[4] = tested on: NCI-H1373 (human lung adenocarcinoma) cells; assay: Cell proliferation assay (CellTiter-Glo), NCI-H1373; type: cell-based; details: 6 days, CellTiter-Glo, read-out: NCI-H1373 GI50

Row | Compound | GI50 ([1]; Homo sapiens, 144 h) | GI50 ([2]; Mus musculus, CT26, 144 h) | IC50 [3] | GI50 ([4]; Homo sapiens, NCI-H1373, 144 h) | GI50 [1] | GI50 [2] | GI50 [4]
1 | N#Cc1ccc(N2CCCC23CN(C(=O)c2cc(Cc4n[nH]c(=O)c5ccc(OC6CCC6)cc45)ccc2F)C3)nc1 [Example 149, 6-(2-(5-((7-cyclobutoxy-4-oxo-3,4-dihydrophthalazin-1-yl)methyl)-2-fluorobenzoyl)-2,5-diazaspiro[3.4]octan-5-yl)nicotinonitrile] | > 5000 nM | > 5000 nM | 500 to 2000 nM | > 5000 nM | – | – | –
2 | 6-Cyclobutoxy-4-(4-fluoro-3-(2-(hydroxymethyl)-4,5,6,7-tetrahydropyrazolo[1,5-a]pyrazine-5-carbonyl)benzyl)phthalazin-1(2H)-one [Example 168] | – | – | 100 to 500 nM | – | > 5000 nM | > 5000 nM | > 5000 nM
3 | Cc1cc(C#N)cnc1N1CCN(C(=O)c2cc(Cc3n[nH]c(=O)c4ccc(OC5CCC5)cc34)ccc2F)CC1 [Example 138, 6-(4-(5-((7-cyclobutoxy-4-oxo-3,4-dihydrophthalazin-1-yl)methyl)-2-fluorobenzoyl)piperazin-1-yl)-5-methylnicotinonitrile] | 1000 to 5000 nM | > 5000 nM | < 50 nM | 100 to 1000 nM | – | – | –
4 | N#Cc1ccc(N2CCN(C(=O)c3cc(Cc4n[nH]c(=O)c5ccc(OC6CCC6)cc45)ccc3F)[C@@H]3C[C@@H]32)nc1 (stereo in doubt) [Example 150, 6-(5-(5-((7-cyclobutoxy-4-oxo-3,4-dihydrophthalazin-1-yl)methyl)-2-fluorobenzoyl)-2,5-diazabicyclo[4.1.0]heptan-2-yl)nicotinonitrile] | 1000 to 5000 nM | 1000 to 5000 nM | < 50 nM | 100 to 1000 nM | – | – | –
5 | COc1ccc2c(=O)[nH]nc(Cc3cccc(C(=O)N4CCN(c5ccc(C#N)cn5)CC4)c3)c2c1 [Example 4, 6-(4-(3-((7-Methoxy-4-oxo-3,4-dihydrophthalazin-1-yl)methyl)benzoyl)piperazin-1-yl)nicotinonitrile] | 1000 to 5000 nM | 100 to 1000 nM | < 50 nM | < 100 nM | – | – | –
6 | COc1cc2c(Cc3ccc(F)c(C(=O)N4CCN(c5ccc(C#N)cn5)CC4)c3)n[nH]c(=O)c2cn1 [Example 91, 6-(4-(2-fluoro-5-((7-methoxy-4-oxo-3,4-dihydropyrido[4,3-d]pyridazin-1-yl)methyl)benzoyl)piperazin-1-yl)nicotinonitrile] | > 5000 nM | > 5000 nM | < 50 nM | 1000 to 5000 nM | – | – | –
7 | N#Cc1ccc(N2CCN(C(=O)c3cc(Cc4n[nH]c(=O)c5ccc(S(=O)(=O)C6CCC6)cc45)ccc3F)CC2)nc1 [Example 53, 6-(4-(5-((7-(cyclobutylsulfonyl)-4-oxo-3,4-dihydrophthalazin-1-yl)methyl)-2-fluorobenzoyl)piperazin-1-yl)nicotinonitrile] | > 5000 nM | > 5000 nM | 100 to 500 nM | > 5000 nM | – | – | –
8 | O=C(c1cc(Cc2n[nH]c(=O)c3ccc(OC4CCC4)cc23)ccc1F)N1CCN(c2ccc(C(F)(F)F)nn2)CC1 [Example 158, 6-cyclobutoxy-4-(4-fluoro-3-(4-(6-(trifluoromethyl)pyridazin-3-yl)piperazine-1-carbonyl)benzyl)phthalazin-1(2H)-one] | > 5000 nM | 1000 to 5000 nM | < 50 nM | 1000 to 5000 nM | – | – | –
9 | N#Cc1ccc(-c2nnc3n2CCN(C(=O)c2cc(Cc4n[nH]c(=O)c5ccc(OC6CCC6)cc45)ccc2F)C3)nc1 [Example 139, 6-(7-(5-((7-cyclobutoxy-4-oxo-3,4-dihydrophthalazin-1-yl)methyl)-2-fluorobenzoyl)-5,6,7,8-tetrahydro-[1,2,4]triazolo[4,3-a]pyrazin-3-yl)nicotinonitrile] | 1000 to 5000 nM | > 5000 nM | < 50 nM | 100 to 1000 nM | – | – | –
10 | N#Cc1ccc(N2CCN(C(=O)c3cc(Cc4n[nH]c(=O)c5ccc(OC6CCC6)cc45)ccn3)CC2)nc1 [Example 179, 6-(4-(4-((7-Cyclobutoxy-4-oxo-3,4-dihydrophthalazin-1-yl)methyl)picolinoyl)piperazin-1-yl)nicotinonitrile] | > 5000 nM | > 5000 nM | < 50 nM | < 100 nM | – | – | –
11 | N#Cc1ccc(N2CCN(C(=O)c3cc(Br)cc(Cc4n[nH]c(=O)c5ccc(OC6CCC6)cc45)c3)CC2)nc1 [Example 178, 6-(4-(3-Bromo-5-((7-cyclobutoxy-4-oxo-3,4-dihydrophthalazin-1-yl)methyl)benzoyl)piperazin-1-yl)nicotinonitrile] | 1000 to 5000 nM | > 5000 nM | < 50 nM | 100 to 1000 nM | – | – | –
12 | N#Cc1ccc(N2CC3(CN(C(=O)c4cc(Cc5n[nH]c(=O)c6ccc(OC7CCC7)cc56)ccc4F)C3)C2)nc1 [Example 148, 6-(6-(5-((7-cyclobutoxy-4-oxo-3,4-dihydrophthalazin-1-yl)methyl)-2-fluorobenzoyl)-2,6-diazaspiro[3.3]heptan-2-yl)nicotinonitrile] | > 5000 nM | > 5000 nM | 500 to 2000 nM | > 5000 nM | – | – | –
13 | O=C(c1cc(Cc2n[nH]c(=O)c3ccc(OC4CCC4)cc23)ccc1F)N1CCN(c2ccc(C(F)(F)F)nc2)CC1 [Example 159, 6-Cyclobutoxy-4-(4-fluoro-3-(4-(6-(trifluoromethyl)pyridin-3-yl)piperazine-1-carbonyl)benzyl)phthalazin-1(2H)-one] | > 5000 nM | > 5000 nM | < 50 nM | 100 to 1000 nM | – | – | –
14 | CC#Cc1ccc2c(=O)[nH]nc(Cc3ccc(F)c(C(=O)N4CCN(c5ccc(C#N)cn5)CC4)c3)c2c1OC [Example 81, 6-(4-(2-Fluoro-5-((8-methoxy-4-oxo-7-(prop-1-yn-1-yl)-3,4-dihydrophthalazin-1-yl)methyl)benzoyl)piperazin-1-yl)nicotinonitrile] | 100 to 1000 nM | < 100 nM | < 50 nM | < 100 nM | – | – | –
15 | O=C(c1cc(Cc2n[nH]c(=O)c3ccc(OC4CCC4)cc23)ccc1F)N1CCN(c2cc(C(F)(F)F)ccn2)CC1 [Example 156, 6-cyclobutoxy-4-(4-fluoro-3-(4-(4-(trifluoromethyl)pyridin-2-yl)piperazine-1-carbonyl)benzyl)phthalazin-1(2H)-one] | 1000 to 5000 nM | > 5000 nM | < 50 nM | 100 to 1000 nM | – | – | –
16 | N#Cc1ccc(N2CCN(C(=O)c3ccnc(Cc4n[nH]c(=O)c5ccc(OC6CCC6)cc45)c3)CC2)nc1 [Example 180, 6-(4-(2-((7-Cyclobutoxy-4-oxo-3,4-dihydrophthalazin-1-yl)methyl)isonicotinoyl)piperazin-1-yl)nicotinonitrile] | > 5000 nM | 1000 to 5000 nM | < 50 nM | < 100 nM | – | – | –
17 | N#Cc1ccc(N2CCN(C(=O)c3cc(Cc4n[nH]c(=O)c5c(C(F)(F)F)cc(OC6CCC6)cc45)ccc3F)CC2)nc1 [Example 93, 6-(4-(5-((7-Cyclobutoxy-4-oxo-5-(trifluoromethyl)-3,4-dihydrophthalazin-1-yl)methyl)-2-fluorobenzoyl)piperazin-1-yl)nicotinonitrile] | 1000 to 5000 nM | 1000 to 5000 nM | < 50 nM | < 100 nM | – | – | –
18 | N#Cc1cnc(N2CCN(C(=O)c3cc(Cc4n[nH]c(=O)c5ccc(OC6CCC6)cc45)ccc3F)CC2)nc1 [Example 154, 2-(4-(5-((7-cyclobutoxy-4-oxo-3,4-dihydrophthalazin-1-yl)methyl)-2-fluorobenzoyl)piperazin-1-yl)pyrimidine-5-carbonitrile] | 1000 to 5000 nM | 1000 to 5000 nM | < 50 nM | < 100 nM | – | – | –
19 | N#Cc1ccc(N2CCCN(C(=O)c3cc(Cc4n[nH]c(=O)c5ccc(OC6CCC6)cc45)ccc3F)CC2)nc1 [Example 94, 6-(4-(5-((7-Cyclobutoxy-4-oxo-3,4-dihydrophthalazin-1-yl)methyl)-2-fluorobenzoyl)-1,4-diazepan-1-yl)nicotinonitrile] | 1000 to 5000 nM | 1000 to 5000 nM | < 50 nM | < 100 nM | – | – | –
20 | N#Cc1ccc(N2CCN(C(=O)c3cc(Cc4n[nH]c(=O)c5ccc(OC6CCC6)cc45)ccc3F)CC2)nc1C(F)(F)F [Example 135, 6-(4-(5-((7-cyclobutoxy-4-oxo-3,4-dihydrophthalazin-1-yl)methyl)-2-fluorobenzoyl)piperazin-1-yl)-2-(trifluoromethyl)nicotinonitrile] | > 5000 nM | > 5000 nM | 50 to 100 nM | 100 to 1000 nM | – | – | –
21 | COc1ccnc(N2CCN(C(=O)c3cc(Cc4n[nH]c(=O)c5ccc(OC6CCC6)cc45)ccc3F)CC2)c1 [Example 128, 6-cyclobutoxy-4-(4-fluoro-3-(4-(4-methoxypyridin-2-yl)piperazine-1-carbonyl)benzyl)phthalazin-1(2H)-one] | 1000 to 5000 nM | 1000 to 5000 nM | < 50 nM | 100 to 1000 nM | – | – | –
22 | O=C(c1cc(Cc2n[nH]c(=O)c3ccc(OC4CCC4)cc23)ccc1F)N1CCN(c2ncc(C(F)F)cn2)CC1 [Example 157, 6-Cyclobutoxy-4-(3-(4-(5-(difluoromethyl)pyrimidin-2-yl)piperazine-1-carbonyl)-4-fluorobenzyl)phthalazin-1(2H)-one] | 1000 to 5000 nM | 1000 to 5000 nM | < 50 nM | < 100 nM | – | – | –
23 | N#Cc1ccc(N2CCN(C(=O)c3cc(Cc4n[nH]c(=O)c5ccc(OC6CC(F)(F)C6)cc45)ccc3F)CC2)nc1 [Example 51, 6-(4-(5-((7-(3,3-Difluorocyclobutoxy)-4-oxo-3,4-dihydrophthalazin-1-yl)methyl)-2-fluorobenzoyl)piperazin-1-yl)nicotinonitrile] | > 5000 nM | 1000 to 5000 nM | < 50 nM | < 100 nM | – | – | –
